Legend:
[1] = biological target: T1, Tyrosine-protein phosphatase non-receptor type 1 (Homo sapiens) (UniProt P18031); test: Inhibition of PTP1B (unknown origin) assessed as decrease in p-nitrophenol production from pNPP substrate at 25 ug/ml after 30 mins by HTS7000 bioassay reader analysis
T1 sequence (whole entry): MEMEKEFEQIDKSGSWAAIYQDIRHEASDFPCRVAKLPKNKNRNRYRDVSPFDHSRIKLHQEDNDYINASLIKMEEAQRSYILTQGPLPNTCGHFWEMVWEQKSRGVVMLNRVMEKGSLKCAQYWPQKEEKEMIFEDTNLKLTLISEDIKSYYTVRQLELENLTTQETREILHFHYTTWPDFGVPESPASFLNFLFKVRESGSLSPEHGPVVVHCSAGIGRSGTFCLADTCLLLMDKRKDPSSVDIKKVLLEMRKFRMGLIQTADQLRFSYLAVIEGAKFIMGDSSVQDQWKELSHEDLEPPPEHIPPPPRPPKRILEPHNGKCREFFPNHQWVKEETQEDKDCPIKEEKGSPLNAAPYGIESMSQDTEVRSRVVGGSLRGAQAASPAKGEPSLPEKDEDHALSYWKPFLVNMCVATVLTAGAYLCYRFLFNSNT

[2] = biological target: T2, Tyrosine-protein phosphatase non-receptor type 2 (Homo sapiens, UniProt P17706); test: (§1) Inhibition of TCPTP (unknown origin) assessed as decrease in p-nitrophenol production from pNPP substrate after 30 mins by HTS7000 bioassay reader analysis
T2 sequence (P17706 whole entry): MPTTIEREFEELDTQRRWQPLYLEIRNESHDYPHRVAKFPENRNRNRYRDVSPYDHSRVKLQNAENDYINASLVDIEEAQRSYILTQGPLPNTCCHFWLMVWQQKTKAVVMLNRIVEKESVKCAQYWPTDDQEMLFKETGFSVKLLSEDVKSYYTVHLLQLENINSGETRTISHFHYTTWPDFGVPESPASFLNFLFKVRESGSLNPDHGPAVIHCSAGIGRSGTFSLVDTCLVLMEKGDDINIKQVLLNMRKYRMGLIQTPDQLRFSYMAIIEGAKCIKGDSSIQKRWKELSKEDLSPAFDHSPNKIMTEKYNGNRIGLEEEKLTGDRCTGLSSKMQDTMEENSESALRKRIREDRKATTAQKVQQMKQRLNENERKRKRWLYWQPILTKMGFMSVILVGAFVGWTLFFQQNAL

[3] = biological target: T3, Tyrosine-protein phosphatase non-receptor type 2 (Homo sapiens) (UniProt P17706); test: as §1
T3 sequence (whole entry): T2 sequence (P17706 whole entry)

[4] = biological target: T4, Tyrosine-protein phosphatase non-receptor type 1 (Homo sapiens, UniProt P18031); test: Inhibition of PTP1B (unknown origin) assessed as decrease in p-nitrophenol production from pNPP substrate after 30 mins by HTS7000 bioassay reader analysis
T4 sequence (P18031 whole entry): T1 sequence (whole entry)

Row | Compound | inhibition [1] [%] | IC50 [2] [µM] | inhibition [3] | IC50 [4] [µM]
1 | CC(C)=C1C[C@@H](O)[C@](C)(O)CC[C@H](O)/C(C)=C\C1=O | < 65 |  |  | 
2 | C=C(C)[C@H]1CC[C@@](C)(O)[C@H]2CC[C@](C)(O)[C@H]2C1 | < 65 |  |  | 
3 | CC(C)=C1C[C@H]2[C@@H](CC[C@]2(C)O)C(CO)=CC1=O | < 65 |  |  | 
4 | C=C1CC[C@H]2C(C)(C)CCC[C@]2(C)[C@H]1C/C=C(\C=O)CC(=O)O [ZERUMIN A] | 96.7 | 7.4 | Dose-dependent effect | 10.4
5 | C=C(C)[C@@H]1CC[C@](C)(O)[C@H]2CC[C@](C)(O)[C@H]2C1 | < 65 |  |  | 
6 | CCCCCCCCCCCCCCCC(=O)C1=C(O)[C@@H](CO)OC1=O | 99.1 | 5.1 |  | 5.62
7 | CC1=CC(=O)[C@@]2(C[C@]3(O)[C@@H](C)CC[C@@H]13)OC2(C)C | < 65 |  |  | 
8 | C/C1=C/C(=O)/C(C(C)(C)O)=C\C=C(\C)C(=O)CC1 | < 65 |  |  | 
9 | CC1=CC(=O)C(=C(C)C)C[C@@H]2[C@@](C)(O)CC[C@]12O [AERUGIDIOL] | 87.5 | 45.9 | Dose-dependent effect | 35.7
10 | C=C(C)[C@@H]1CC[C@@]2(C)[C@H](O)CC[C@@](C)(O)[C@@H]2C1 | < 65 |  |  | 
11 | CC(C)=C1C[C@@H](O)[C@@](C)(O)CC[C@@H](O)/C(C)=C\C1=O [HEYNEANONES C] | 86.2 | 36.7 | Dose-dependent effect | 35.2
12 | C=C1CC[C@H]2C(C)(C)CCC[C@]2(C)[C@H]1/C=C/C(C)=O | 88.8 | 9.3 | Dose-dependent effect | 14.7
13 | CC1=C[C@@]2(O)O[C@@]3(C/C2=C(/C)CO)[C@@H](C)CC[C@@H]13 | < 65 |  |  | 
14 | C[C@H]1[C@H](C)CC[C@]2(C(=O)O)CC[C@]3(C)C(=CC[C@@H]4[C@@]5(C)CC[C@H](O)C(C)(C)[C@@H]5CC[C@]43C)[C@H]12 [URSOLIC ACID] | 96.7 | 2.4 |  | 

Results, then the compound that gave them:

Row | inhibition [1] [%] | IC50 [2] [µM] | inhibition [3] | IC50 [4] [µM] | Compound
15 | < 65 |  |  |  | C=C(C)[C@@H]1CC[C@H](C)[C@@]12C=C(C(C)(C)O)C(=O)O2
16 | < 65 |  |  |  | CC(C)=C1C[C@H]2[C@@H](CC[C@]2(C)O)[C@](C)(O)CC1=O
17 | < 65 |  |  |  | C=C(C)[C@@H]1CC[C@H](C)[C@]12CC(=C(C)C)C(=O)O2
18 | 86 | 15.7 | Dose-dependent effect | 35.1 | CC(C)=C1C[C@H]2[C@@H](CC[C@@]2(C)O)[C@@](C)(O)CC1=O
19 | < 65 |  |  |  | C=C(C)[C@@H]1CC[C@@H](C)[C@@]12C=C(C(C)(C)O)C(=O)O2
20 | < 65 |  |  |  | C=C(C)[C@H]1CC[C@H](C)[C@]12CC(=C(C)C)C(=O)O2
21 | < 65 |  |  |  | C=C(C)[C@@H]1CC[C@@]2(C)OC(=O)C(=C(C)C)C[C@@H]12
22 | < 65 |  |  |  | C=C1C[C@]2(O)O[C@@]3(CC2=C(C)C)[C@@H](C)CC[C@@H]13
23 | < 65 |  |  |  | CC(C)=C1C[C@H]2[C@H](CC[C@]2(C)O)[C@@](C)(O)CC1=O
24 | 69.3 | 26.8 | Dose-dependent effect | 45.6 | CC1=CC(=O)C(=C(C)C)C[C@H]2[C@H]1CC[C@]2(C)O [PROCURCUMENOL]
25 | < 65 |  |  |  | C=C(C)[C@@H]1CC[C@]2(C)OC(=O)C(=C(C)C)C[C@@H]12
26 | 77.5 | 62 | Dose-dependent effect | 42.5 | CC(C)=C1C[C@@H](O)[C@@](C)(O)CC[C@H](O)/C(C)=C\C1=O [HEYNEANONE A]

Reference: ChEMBL document CHEMBL2331519, “Sesquiterpenes from the rhizomes of Curcuma heyneana” (J Nat Prod, 2013)
